Earlier results as cited in patent EP1656939A1 (Pooger Properties Limited, priority 2004, dated 2006).

Legend:
[1] = system: chemically induced mammary tumors
[2] = system: Ehrlich-carcinoma- and sarcoma-180-bearing mice; conditions: photoperiod alternated between LD 14:10 and DL 10:14 every 3 days

COc1ccc2[nH]cc(CCNC(C)=O)c2c1 [melatonin, N-acetyl-5-methoxytryptamine]
promotion of chemically induced mammary tumors ([1]; in vivo): inhibits | antitumor activity ([1]; rodents): significant antitumor activity | half-life of endogenous melatonin in the serum (endogenous melatonin, serum): 30 to 50 min | cleared in a single passage through the liver (single passage through the liver): Approximately 90% | reduction of survival and acceleration of tumor growth [2]: reversed
